Source: patent US20150231109A1, “COMBINATIONS (CATECHINS AND METHOTREXATE) FOR USE IN THE TREATMENT OF MELANOMAS” (UNIVERSIDAD DE MURCIA, priority 2012, published 2015)

Key:
MITF = MITF mRNA and protein expression (RT-PCR, western blot, immunofluorescence) in melanoma cell lines; format: cell-based; settings: MTX 1 μM; mouse (B16/F10) and human (SK-MEL-28, G361, A375) cell lines
Procedure: (§1) mRNA extraction, cDNA synthesis, and conventional and qRT-PCR were performed under standard conditions. Primers were designed using Primer Express version 2.0 software (Applied Biosystems, Foster City, Calif.) and synthesized by Invitrogen (Barcelona, Spain).
(§2) Whole cell lysates were collected by adding SDS sample buffer. After extensive sonication, samples were boiled for 10 min and subjected to SDS-PAGE. Proteins were then transferred to nitrocellulose membranes and analyzed by immunoblotting (ECL Plus, GE Healthcare, Barcelona, Spain).
Confocal microscopy was carried out using a Leica TCS 4D confocal microscope (Wetzlar, Germany). For indirect immuno-fluorescence studies, preparation of the cells on glass slides were fixed with cold acetone for 5 min, and washed with PBS. The cells were incubated with 3% bovine serum albumin (BSA) for 20 min and then 2 h at room temperature with primary antibodies (diluted 1:200 in PBS containing 1% BSA) as described in each experiment. The cells were washed three times in PBS and incubated for 1 h at room temperature with Alexa Fluor Dyes (Invitrogen) as secondary antibodies. After 3 washes with PBS, the cells were incubated with 0.01% 4′-6-diamidino-2-phenylidene (DAPI; Sigma) in water for 5 min. […]

TYR = TYR mRNA and protein expression in melanoma cell lines; format: cell-based, human; settings: MTX 1 μM; SK-MEL-28 and multiple melanoma cell lines
Procedure: H, Semiquantitative RT PCR of TYR, TYRP1, Pmel17, MART1, and Rab27a mRNA. SK-MEL-28 and siMITF-SK-MEL-28 cells were treated for 5 h with 1 μM MTX. mRNA levels are presented relative to β-actin mRNA and compared to their expression levels in untreated cells (1-fold).
as §1, §2

SK-MEL-28 cells = assay: Matrigel Boyden chamber invasion assay, SK-MEL-28; format: cell-based, human; settings: SK-MEL-28, MTX 48 h, 1 μM
Procedure: FIGS. 1A-J. Methotrexate up-regulates the expression of MITF. A, The MITF rheostat, and the two-step strategy for melanoma therapy: Drug A induces MITF, driving cells to be sensitive to Drug B. B, MTX (1 μM) increases MITF mRNA determined using quantitative and conventional RT-PCR from indicated cell lines. […] C, MTX (1 μM) induces MITF protein assayed by western blotting (WB) (*P<0.05). D, Immunofluorescence of control or MTX-treated (3 h) 501 MEL cells using anti-MITF and DAPI. E, Matrigel assay of control and MTX-treated SKMEL-28 cells (48 h, 1 μM) and IGR39 (72 h, 1 μM) cells. […] Scale bar refers to all panels. F, Chromatin immunoprecipitation on TYR and Pmel17 genes of control and MTX-treated (4 h, 1 μM) SK-MEL-28 cells with qRT-PCR after immunoprecipitation with IgG, or MITF and HDAC3 antibodies. Error bars indicate standard deviations of triplicates; experiment reproduced four times with similar results. G, Scanning electron micrographs of control and MTX-treated (1 μM, 24 h) SK-MEL-28 cells. H, Semiquantitative RT PCR of TYR, TYRP1, Pmel17, MART1, and Rab27a mRNA. […]
Invasion assays were performed using a cell invasion assay kit (BD Bioscience). […] The invading cells were stained and quantified measuring the surface occupied by stained cells with a cell counter plug-in of the Image J software.

[1] = test system: melanoma (SK-MEL-28, G361) cell lines; assay: MTX/TMECG synergy titration (apoptosis), melanoma cell lines; format: cell-based, human; settings: apoptosis after 4 days
Procedure: FIGS. 5A-D. The effects of MTX and/or TMECG on the growth of melanoma cell lines. A, Viability was determined by the MTT assay. Cells were treated with vehicle only (•), 10 μM TMECG ( ), 1 μM MTX (▴) or with a combination of 1 μM MTX+10 μM TMECG (▾). Table outlines p53, BRAF, NRAS, and PTEN status with specific amino acid substitutions. […] B, MTX/TMECG synergy test for melanoma and non-melanoma cancer cells in which drugs were combined in 6×6 matrices where the concentration of one drug was increased along each axis. The lowest concentration was 0 and the highest concentration was chosen close to the IC50 for each drug in each assayed cell line. Apoptosis was determined after 4 days of treatment. Data were obtained in triplicate in two independent experiments. […]
The induction of apoptosis was assessed by performing cytoplasmic histone-associated DNA fragmentation using a kit from Roche Diagnostics (Barcelona, Spain). […] The amount of nucleosomes is photometrically quantified at 405 nm by the peroxidase activity retained in the immunocomplexes. Apoptosis was defined as the specific enrichment of mono- and oligonucleosomes in the cytoplasm and was calculated by dividing the absorbance of treated samples by the absorbance of untreated samples after correcting for the number of cells. […]

For `CN(Cc1cnc2nc(N)nc(N)c2n1)c1ccc(C(=O)N[C@@H](CCC(=O)O)C(=O)O)cc1` [MTX, methotrexate], the “MITF mRNA and protein” value (MITF) was “increased”, the “mRNA expression of MITF differentiation target TYR and TYR protein expression” value (TYR) was “increased” and the invasiveness (SK-MEL-28 cells) was “eliminated invasiveness”. For the same molecule, the “sensitivity to MTX alone, melanoma versus non-melanoma lines” value [1] was “substantially less sensitive”.
